In one data set the test system is NK cells. In words: Test 3 NK cell cytotoxicity of spleen cells against calcein-stained YAC-1 target cells. Format: cell-based, mouse. To be noted: test substance 1 μg/mL, 18 hours, then YAC-1 target cells 4 hours, control set to 1. How it is done: After dissection of a C57BL/6J mouse (8 weeks old), spleen cells were isolated, and a cell suspension prepared by dilution in a 10% fetal bovine serum-RPMI 1640 medium was seeded at 100 µL/well so that the cells were seeded at 5×10^6 cells/well in a 96-well plate. To the seeded cells, a medium (0.5% DMSO-10% fetal bovine serum-RPMI 1640 medium) prepared to have a total concentration of test substances of 1 μg/mL (for young barley leaf juice powder, the concentration of young barley leaf juice ingredient excluding dextrin was 1 μg/mL) was added at 100 μL/well, and the resultant was cultured for 18 hours in a 5% CO2 incubator (“CO2 Incubator” manufactured by ASTEC) at 37° C.
After culture, the plate was centrifuged (at 1,000 rpm for 10 minutes) using a centrifuge. 150 μL of the supernatant was removed, and 150 μL of 1% BSA-RPMI 1640 was added. This process was repeated once more. After that, YAC-1 cells (stained with calcein) sensitive to NK cells were added as target cells, and the resultant was cultured for 4 hours.
After culture, the plate was centrifuged (at 1,000 rpm for 10 minutes) using a centrifuge, and the supernatant was collected in a 96-well black plate. The collected supernatant was measured for fluorescence intensity (at an excitation wavelength of 490 nm and a fluorescence wavelength of 515 nm) using a microplate reader (“SpectraMax i3x” manufactured by Molecular Devices), and the NK cell cytotoxicity was evaluated.
The NK cell cytotoxicity (relative value) is shown in Table 5 with the value of the control set to 1. A higher relative value of NK cell cytotoxicity indicates greater activation of NK cells. […] Even if dietary fiber (cellulose), Vitamin D, or Spirulina, which are known to have immune-stimulating effects, was added, the NK cells were not activated.

Data set [1] has as its system bone marrow-derived dendritic cells (including both cDCs and pDCs). The experiment in a line: Test 1 (A) TNF-α gene expression in bone marrow-derived dendritic cells (real-time PCR). It is filed as cell-based, mouse. To be noted: test substance 10 μg/mL, 72 hours; TNF-α/β-actin, control with no test substance set to 1. The procedure:
After dissection of a C57BL/6J mouse (8 weeks old), bone marrow mononuclear cells were sampled from the femur and tibia, and cultured using a differentiation induction medium (RPMI 1640 medium containing 10% fetal bovine serum, 100 μM of 2-mercaptoethanol, and 100 ng/ml of Flt3 ligand). […] After the medium was removed from each well, 100 μL of a differentiation induction medium containing 0.5% DMSO, which was prepared so that a total concentration of the test substances was 10 μg/mL (for young barley leaf juice powder, the concentration of young barley leaf juice ingredient excluding dextrin was 10 μg/mL), was added to each well and cultured for 72 hours. After that, the medium was removed from each well, and RNA was collected using the RNeasy Mini Kit (manufactured by QIAGEN). From the obtained RNA, a gene expression level (mRNA expression level) of TNF-α was measured by the real-time PCR method using the One Step TB Green® PrimeScript™ RT-PCR Kit II <Perfect Real Time> (manufactured by TaKaRa). For a primer, Mm_Il12B_1_SG QuantiTect Primer Assay and Mm_Tnf1_SG QuantiTect Primer Assay (manufactured by QIAGEN) were used.

`C=C1CC[C@H](O)C/C1=C/C=C1\CCC[C@]2(C)[C@@H]([C@H](C)CCCC(C)C)CC[C@@H]12` [compound 2, Vitamin D3]: the “NK cell cytotoxicity (relative value)” value was “not activated” in the data set on NK cells and 0.93 in the data set with NK cells (listed as Comparative Example 5).
Cellulose [compound 1]: the “NK cell cytotoxicity (relative value)” value in the data set on NK cells is “not activated”; with NK cells (listed as Comparative Example 4) it was 1.05.
As for β-glucan [compound 3], the “TNF-α gene expression level (relative value)” value in data set [1] is 1.17. In the data set on NK cells, the “NK cell cytotoxicity (relative value)” value is 1.04.

These data come from patent US20250127840A1, “METHOD FOR ACTIVATING DENDRITIC CELLS AND METHOD FOR ACTIVATING NATURAL KILLER CELLS, HELPER T CELLS, KILLER T CELLS, B CELLS, OR MACROPHAGES” (TOYO SHINYAKU CO., LTD., priority 2023, published 2025).
